The subject of the assay is r(CUG)12-MBNL1 complex. Briefly: Small molecule inhibition of the r(CUG)12-MBNL1 complex measured by TR-FRET. In kind it is binding. The following applies: biotinylated r(CUG)12 80 nM, MBNL1-His6 60 nM. As to the method:
Example 28: Small Molecule Inhibition of the r(CUG)12-MBNL1 Complex Measured by Time Resolved Fluorescence Resonance Energy Transfer (TR-FRET)
The in vitro activity of small molecules were assessed by measuring the inhibition of the r(CUG)12-MBNL1 complex using a TR-FRET assay previously reported by Chen et al Analytical and Bioanalytical Chemistry 2012, 402, 1889. Biotinylated r(CUG)12 was folded at 60° C. in 1× Folding Buffer (20 mM HEPES, pH 7.5, 100 mM KCl, and 10 mM NaCl) and slowly cooled to room temperature. The buffer was then adjusted to 1× TR-FRET Buffer (1× Folding Buffer supplemented with 2 mM MgCl2, 2 mM CaCl2, 5 mM DTT, 0.1% BSA, 0.05% Tween-20) and MBNL1-His6 was added. The final concentrations of RNA and MBNL1-His6 were 80 nM and 60 nM, respectively. Then dilutions of the small molecule were made in 1× TR-FRET buffer. The samples were equilibrated at room temperature for 15 min, after which 1 μL of antibody solution (1:1 mixture of 8.8 ng/μL Anti-His6-Tb and 800 nM streptavidin XL-665) was added. Samples were incubated at room temperature for 1 h, and then TR-FRET was measured using a Molecular Devices SpectraMax M5 plate reader using an excitation wavelength of 345 nm and a 420 nm cutoff. Controls for maximum TR-FRET (100% complex formation) contained 8 μL of 1× TR-FRET Buffer with RNA and protein and 1 μL water. Controls for minimum TR-FRET (no complex formation) contained 8 μL of 1× Assay Buffer, 1 μL water, and no RNA or protein.
To calculate the percent inhibition of complex formation, the ratio of fluorescence intensity at 545 nm and 665 nm in the presence of compound was compared to the ratio in the absence of small molecule (100% r(CUG)12-MBNL1 complex formation) and in the absence of RNA and protein (no complex formation). The resulting curves were fit to the following equation to determine IC50 values: […]
where y is ratio of fluorescence intensities at 545 nm and 665 nm (F545/F665), x is the concentration of small molecule, B is F545/F665 value at max FRET effect (solution has RNA and protein but no small molecule added); A is F545/F665 value at min FRET effect (solution has antibodies but no RNA, protein, or small molecule); and the IC50 is the concentration of small molecule where half of the protein is displaced by small molecule.
In the case of “3,3′-((2,2′-(2-(3-((3-(2,5-bis(6-(3-(dimethylamino)propoxy)-1H-benzo[d]imidazol-2-yl)phenoxy)propyl)(methyl)amino)propoxy)-1,4-phenylene)bis(1H-benzo[d]imidazole-6,2-diyl))bis(oxy))bis(N,N-dimethylpropan-1-amine) [Ex 18]”, the IC50 (usually the concentration that inhibits the measured activity by half) was found to be 0.72 µM.

As to “3,3′-((2,2′-(((oxybis(ethane-2,1-diyl))bis(oxy))bis(2,1-phenylene))bis(1H-benzo[d]imidazole-6,2-diyl))bis(oxy))bis(N,N-dimethylpropan-1-amine) [Ex 13]”, half-maximal inhibition (IC50) required 188 µM. Next, “3,3′-((2,2′-((ethane-1,2-diylbis(oxy))bis(2,1-phenylene))bis(1H-benzo[d]imidazole-6,2-diyl))bis(oxy))bis(N,N-dimethylpropan-1-amine) [Ex 12]”: above 200 µM. Under `CN(C)CCCOc1ccc2nc(-c3ccccc3OCCOCCOCCOc3ccccc3-c3nc4ccc(OCCCN(C)C)cc4[nH]3)[nH]c2c1` [Ex 14a, 3,3′-((2,2′-((((ethane-1,2-diylbis(oxy))bis(ethane-2,1-diyl))bis(oxy))bis(2,1-phenylene))bis(1H-benzo[d]imidazole-6,2-diyl))bis(oxy))bis(N,N-dimethylpropan-1-amine)] stands 166 µM; under `CN(C)CCCOc1ccc2nc(-c3ccccc3OCCOCCOCCOc3ccccc3-c3nc4ccc(O)cc4[nH]3)[nH]c2c1` [Ex 14b, 2-(2-(2-(2-(2-(2-(6-(3-(dimethylamino)propoxy)-1H-benzo[d]imidazole-2-yl)phenoxy)ethoxy)ethoxy)ethoxy)phenyl)-1H-benzo[d]imidazol-6-ol], above 200 µM; under `CN(C)CCCOc1ccc2nc(-c3ccc(-c4nc5ccc(OCCCN(C)C)cc5[nH]4)c(OCCCCCCCCCCCCOc4cc(-c5nc6ccc(OCCCN(C)C)cc6[nH]5)ccc4-c4nc5ccc(OCCCN(C)C)cc5[nH]4)c3)[nH]c2c1` [Ex 20, 3,3′,3″,3′″-((((dodecane-1,12-diylbis(oxy))bis(benzene-2,1,4-triyl))tetrakis(1H-benzo[d]imidazole-2,5-diyl))tetrakis(oxy))tetrakis(N,N-dimethylpropan-1-amine)], 2.8 µM.

Values taken from patent US20200207744A1, “DIMER COMPOUNDS, AND USE IN BINDING TOXIC REPEATS OF RNA” (EXPANSION THERAPEUTICS, INC., priority 2018, published 2020).
